Measured values: ChEMBL document CHEMBL1201862, “PubChem BioAssay data set” (2004)
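Method: 48-hour compound exposure of cells in 96-well plates, five concentrations, linear interpolation of endpoints. At the GI50, growth is halved.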 The source made the active and inactive calls. No stated cut-off is given here; in the data, active = GI50 up to about 1.1 µM and inactive = higher.

Assays:
Assay in all cases: NCI anticancer screen, dose series, 48 h
A498 = test system: A498
RPMI-8226 = test system: RPMI-8226
LOX IMVI = test system: LOX IMVI
ACHN = test system: ACHN
HOP-92 = test system: HOP-92
M19-MEL = test system: M19-MEL
NCI-H226 = test system: NCI-H226
SF-268 = test system: SF-268
NCI-H460 = test system: NCI-H460
K562 = test system: K562
TK-10 = test system: TK-10
OVCAR-5 = test system: OVCAR-5
HL-60 = test system: HL-60
A549 = test system: A549
SK-OV-3 = test system: SK-OV-3
HOP-62 = test system: HOP-62
KM12 = test system: KM12
RXF 393 = test system: RXF 393

Measured: GI50

CCCCCCCCCCCCCCCCCC(=O)NCCCNCCCNC(=O)CCCCCCCCCCCCCCCCC
inactive: A498 > 100 µM | RPMI-8226 > 100 µM | LOX IMVI > 100 µM | ACHN > 100 µM | HOP-92 > 100 µM | M19-MEL > 100 µM | NCI-H226 > 100 µM | SF-268 > 100 µM | NCI-H460 > 100 µM | K562 > 100 µM | TK-10 > 100 µM | OVCAR-5 > 100 µM | HL-60 > 100 µM | A549 > 100 µM | SK-OV-3 > 100 µM | HOP-62 > 100 µM

O/N=C1/CCCC/C1=C\c1ccc(Cl)c(Cl)c1
inactive: A498 29.6 µM | LOX IMVI 21 µM | ACHN 28.7 µM | M19-MEL 37.3 µM | SF-268 25.1 µM | NCI-H460 23.9 µM | K562 27.8 µM | TK-10 34.8 µM | HL-60 3.8 µM | A549 30.1 µM | SK-OV-3 35.3 µM | HOP-62 49 µM

COC(=O)C(=O)C(CC(=O)Nc1ccc(C)cc1)C(=O)OC (configuration not stated)
inactive: RPMI-8226 > 100 µM | LOX IMVI > 100 µM | ACHN > 100 µM | HOP-92 > 100 µM | M19-MEL > 100 µM | NCI-H226 > 100 µM | KM12 > 100 µM | SF-268 > 100 µM | NCI-H460 > 100 µM | K562 > 100 µM | TK-10 > 100 µM | OVCAR-5 > 100 µM | HL-60 > 100 µM | A549 > 100 µM | SK-OV-3 > 100 µM | HOP-62 > 100 µM | RXF 393 > 100 µM

COc1ccc2[nH]c3c(O)nncc3c2c1
inactive: A498 > 100 µM | RPMI-8226 > 100 µM | LOX IMVI > 100 µM | ACHN > 100 µM | HOP-92 35.1 µM | M19-MEL > 100 µM | NCI-H226 > 100 µM | KM12 > 100 µM | SF-268 > 100 µM | NCI-H460 > 100 µM | K562 > 100 µM | TK-10 > 100 µM | OVCAR-5 > 100 µM | HL-60 > 100 µM | A549 > 100 µM | SK-OV-3 45.7 µM | HOP-62 > 100 µM

Clc1ccc(C2=NOC3C4CCC(C4)C23)cc1 (configuration not stated)
inactive: A498 > 100 µM | RPMI-8226 87.1 µM | ACHN > 100 µM | HOP-92 > 100 µM | M19-MEL > 100 µM | NCI-H226 > 100 µM | KM12 > 100 µM | SF-268 > 100 µM | NCI-H460 > 100 µM | K562 > 100 µM | TK-10 > 100 µM | OVCAR-5 > 100 µM | HL-60 56 µM | A549 > 100 µM | SK-OV-3 > 100 µM | HOP-62 > 100 µM

Cc1c(C(Cc2ccccc2N(C)C(=O)/C=C\C(=O)O)c2c[nH]c3ccccc23)c2ccccc2n1C (configuration not stated)
inactive: A498 17.9 µM | LOX IMVI 15.3 µM | ACHN 17.1 µM | M19-MEL 15.7 µM | NCI-H226 19.3 µM | KM12 15.6 µM | SF-268 20.6 µM | NCI-H460 15.3 µM | K562 18.7 µM | TK-10 17.7 µM | OVCAR-5 21.2 µM | HL-60 4.66 µM | A549 16.6 µM | SK-OV-3 21.7 µM | HOP-62 16.2 µM | RXF 393 14.2 µM

[N-]=[N+]=NC(c1cn(C2CC(O)C(CO)O2)c(=O)[nH]c1=O)C(Cl)Br (configuration not stated)
inactive: RPMI-8226 > 100 µM | LOX IMVI > 100 µM | ACHN > 100 µM | HOP-92 > 100 µM | M19-MEL > 100 µM | NCI-H226 > 100 µM | KM12 > 100 µM | NCI-H460 > 100 µM | K562 > 100 µM | TK-10 > 100 µM | HL-60 > 100 µM | A549 > 100 µM | RXF 393 > 100 µM

CC(C)(C)c1cc(CCC(=O)Nc2ccc(Cl)cc2)nc(S)n1
inactive: RPMI-8226 > 100 µM | LOX IMVI > 100 µM | ACHN > 100 µM | M19-MEL > 100 µM | NCI-H226 > 100 µM | KM12 > 100 µM | SF-268 > 100 µM | NCI-H460 > 100 µM | K562 > 100 µM | TK-10 > 100 µM | OVCAR-5 > 100 µM | HL-60 > 100 µM | A549 > 100 µM | SK-OV-3 > 100 µM | HOP-62 > 100 µM | RXF 393 > 100 µM

COC1=CC(=C(C#N)/C(=N\c2ccccc2)SC)C=C(OC)C1=O
inactive: A498 20.9 µM | RPMI-8226 18.8 µM | LOX IMVI 39.5 µM | ACHN 40.8 µM | HOP-92 3.84 µM | M19-MEL 70.6 µM | KM12 63.2 µM | NCI-H460 70.6 µM | K562 22.6 µM | TK-10 > 100 µM | A549 78.9 µM | SK-OV-3 > 100 µM | RXF 393 24.4 µM

COC(=O)c1ccccc1NC(=O)C(=O)NNC(=O)c1ccncc1
inactive: LOX IMVI > 100 µM | ACHN > 100 µM | HOP-92 > 100 µM | M19-MEL > 100 µM | NCI-H226 > 100 µM | KM12 > 100 µM | SF-268 > 10 µM | NCI-H460 > 100 µM | TK-10 > 100 µM | HL-60 > 100 µM | A549 > 100 µM | SK-OV-3 > 100 µM | HOP-62 > 100 µM | RXF 393 > 100 µM

CCOC(=O)NC(=O)c1cn(CC(=O)NCC(=O)NCC(=O)N2CCN(CCn3c(C)nc(C(N)=O)c3N)CC2)c(=O)[nH]c1=O
inactive: A498 > 100 µM | LOX IMVI > 100 µM | ACHN > 100 µM | HOP-92 > 100 µM | M19-MEL > 100 µM | KM12 > 100 µM | SF-268 > 100 µM | NCI-H460 > 100 µM | K562 > 100 µM | TK-10 > 100 µM | HL-60 > 100 µM | A549 > 100 µM | SK-OV-3 > 100 µM | HOP-62 > 100 µM

Cc1cc2c(cc1C)[n+]([O-])c(C(=O)/C=C/c1ccc(Cl)cc1)c(C)[n+]2[O-]
inactive: A498 26.7 µM | RPMI-8226 23.4 µM | LOX IMVI 21.7 µM | ACHN 25.5 µM | HOP-92 28.6 µM | M19-MEL 35.3 µM | NCI-H226 > 100 µM | KM12 33.7 µM | SF-268 > 10 µM | NCI-H460 25.9 µM | K562 33.6 µM | TK-10 22.2 µM | OVCAR-5 42.3 µM | HL-60 24 µM | A549 28.2 µM | SK-OV-3 34.7 µM | HOP-62 24.4 µM

O=c1[nH]nc2ccccc2c1Cl
inactive: A498 17.5 µM | RPMI-8226 3.13 µM | LOX IMVI 17.6 µM | ACHN 16.3 µM | HOP-92 3.08 µM | M19-MEL 6.92 µM | NCI-H226 24.6 µM | KM12 9.44 µM | SF-268 17.8 µM | NCI-H460 18.5 µM | K562 4.24 µM | TK-10 18 µM | OVCAR-5 18.3 µM | A549 29.3 µM | SK-OV-3 17.7 µM | HOP-62 21 µM
